In ChEMBL document CHEMBL1926633, “1,2,4-Triazole D-ribose derivatives: design, synthesis and antitumoral evaluation” (Eur J Med Chem, 2012):

Key:
[1] = Cytotoxicity against mouse BW5147 cells expressing H-2 k haplotype, CD3+ and TCRalphabeta assessed as cell proliferation at 1 ug/mL after 24 hrs by [3H]TdR incorporation assay relative to control; type: functional; details: read-out: Activity
[2] = Cytotoxicity against mouse BW5147 cells expressing H-2 k haplotype, CD3+ and TCRalphabeta assessed as cell proliferation at 50 ug/mL after 24 hrs by [3H]TdR incorporation assay relative to control; type: functional; details: read-out: Activity
[3] = Cytotoxicity against mouse BW5147 cells expressing H-2 k haplotype, CD3+ and TCRalphabeta assessed as cell proliferation at 10 ug/mL after 24 hrs by [3H]TdR incorporation assay relative to control; type: functional; details: read-out: Activity
[4] = Lipophilicity, log P of the compound; type: physicochemical; details: octanol/water
[5] = Cytotoxicity against mouse BW5147 cells expressing H-2 k haplotype, CD3+ and TCRalphabeta assessed as cell proliferation at 100 ug/mL after 24 hrs by [3H]TdR incorporation assay relative to control; type: functional; details: read-out: Activity

Row | logP [4] | Compound | growth at 1 µg/mL [1] [%] | growth at 50 µg/mL [2] [%] | growth at 10 µg/mL [3] [%] | growth at 100 µg/mL [5] [%]
1 | -0.52 | COc1cc(C2=NOC(CO[C@@H]3O[C@H](CSc4ncn[nH]4)[C@@H](O)[C@H]3O)C2)cc(OC)c1OC (mixture of isomers) | 93 | 43 | 51 | 29
2 | 1.95 | C=CCO[C@@H]1O[C@H](CSc2ncn[nH]2)[C@H]2OC3(CCCC3)O[C@@H]12 | -7 | -29 | -9 | -43
3 | -2.45 | C=CCO[C@@H]1O[C@H](CSc2ncn[nH]2)[C@@H](O)[C@H]1O | -2.4 | -14 | -3 | -38
4 | 1.91 | C=CCO[C@@H]1O[C@H](Cn2c(-c3ccc(Cl)cc3)n[nH]c2=S)[C@H]2OC3(CCCC3)O[C@@H]12 | 49 | 70 | 44 | 123
5 | 0.18 | C=CCO[C@@H]1O[C@H](Cn2c(-c3ccc(Cl)cc3)n[nH]c2=S)[C@@H](O)[C@H]1O | -1.5 | 4.4 | 6 | 2

Further lines, the compound ahead of its results:

Row | Compound | logP [4] | growth at 1 µg/mL [1] [%] | growth at 50 µg/mL [2] [%] | growth at 10 µg/mL [3] [%] | growth at 100 µg/mL [5] [%]
6 | COc1cc(C2=NOC(CO[C@@H]3O[C@H](CSc4ncn[nH]4)[C@H]4OC5(CCCC5)O[C@@H]34)C2)cc(OC)c1OC (mixture of isomers) | 0.9 | -5 | -24 | -21 | -45
7 | C=CCO[C@@H]1O[C@H](Cn2c(SCc3ccccc3)nnc2-c2ccc(Cl)cc2)[C@H]2OC3(CCCC3)O[C@@H]12 | 1.63 | 37 | -13 | 0 | 
8 | COc1cc(C2=NOC(CO[C@@H]3O[C@H](Cn4c(SCc5ccccc5)nnc4-c4ccc(Cl)cc4)[C@@H](O)[C@H]3O)C2)cc(OC)c1OC (mixture of isomers) | 1.17 | 143 | -52 | 210 | -67
9 | COc1cc(C2=NOC(CO[C@@H]3O[C@H](Cn4c(SCc5ccccc5)nnc4-c4ccc(Cl)cc4)[C@H]4OC5(CCCC5)O[C@@H]34)C2)cc(OC)c1OC (mixture of isomers) | 1.97 | 215 | -18 | 60 | -45
